Results reported in the NIST ThermoML archive (doi:10.1016/j.jct.2017.11.005).
± gives the expanded uncertainty stated by the source.

Conditions: Gas, Capillary tube (Ostwald / Ubbelohde) method

O=C=O [carbon dioxide]
Conditions	viscosity [mPa·s]
308.2 K, 1200 kPa	0.0153 ± 0.0005
308.2 K, 2070 kPa	0.0154 ± 0.0005
308.2 K, 11330 kPa	0.0638 ± 0.0012
308.2 K, 22090 kPa	0.0882 ± 0.0017
308.2 K, 34970 kPa	0.1068 ± 0.0021
308.2 K, 68930 kPa	0.1441 ± 0.0028
308.2 K, 101200 kPa	0.1733 ± 0.0036
308.2 K, 150520 kPa	0.222 ± 0.0047
323.2 K, 1270 kPa	0.0161 ± 0.0005
323.2 K, 2050 kPa	0.0163 ± 0.0005
323.2 K, 5040 kPa	0.0174 ± 0.0005
323.2 K, 11440 kPa	0.0398 ± 0.001
323.2 K, 20670 kPa	0.0711 ± 0.0015
323.2 K, 50820 kPa	0.112 ± 0.0024
323.2 K, 105530 kPa	0.1606 ± 0.0035
323.2 K, 150430 kPa	0.1953 ± 0.0043
